Literature values in US20240165275A1, “STABLE FORMULATIONS OF INDOCYANINE GREEN” (PROVEPHARM LIFE SOLUTIONS, priority 2021, published 2024).

What was measured:
[1] = after 10 hours of storage in water and direct light
[2] = stored at 4° C. in the dark

SMILES: CC1(C)C(/C=C/C=C/C=C/C=C2\N(CCCCS(=O)(=O)[O-])c3ccc4ccccc4c3C2(C)C)=[N+](CCCCS(=O)(=O)[O-])c2ccc3ccccc3c21.[Na+] [ICG, Indocyanine green]
- reduction of absorbance at spectral peak [1]: 10%
- stability on storage [2]: stable for three days
- fluorescence intensity lost ([2]; three days): 20%
